This is an account of results in US20260241036A1, “CHEMOGENETICS-BASED THERAPY FOR NEUROLOGICAL DISORDERS” (GATEWAY BIOTECHNOLOGY, INC., priority 2023, published 2026).

The subject of data set [1] is excitatory neurons of the IC. Nature of the data set: Sound-based avoidance detection (SBAD) testing in the chemogenetic model of tinnitus (excitatory DREADD injected into the IC, activated by CNO). Type of data set: in vivo, C57BL/6J mice. The protocol: (§1) Using a shuttle box divided into two compartments, mice were trained to cross from side to side with sound cues in the “Go” trials and remain still in the absence of sound in the “No-Go” trials for 15 days. […] The sound cues were randomly played as white noise or narrow-band noise at 5, 10, 16, 20, and 32 kHz with sound intensities randomly at 75, 80, or 85 dB. […] Additionally, a hurdle was added on training 11 to reinforce the training. After the 15th training day, mice were tested for 3 days to obtain a baseline score to be compared after noise exposure, as well as retraining for 3 days.
Following the successful completion of training so that mice reached a high percentage of success in the trials, the mice were exposed to a noise-induced trauma for tinnitus. To ensure that the mice still have their hearing, one ear was protected with an ear plug, while the other ear was exposed to the noise. The mice were placed in a sound booth where they were exposed to 120 dB broadband noise at 4-25 kHz for 2-4 hours. Following the noise exposure, the mice were housed for one month, and then tested to see if they have developed tinnitus. In these testing periods, the mice were tested for three days in the shuttle boxes, where they underwent the Go and No-Go trials, however in the No-Go trials the mice were not shocked, as it is expected that mice with tinnitus would cross compartments in the absence of a sound cue. The mice were continued to be shocked in the Go trials in order to ensure that they have retained their hearing and can hear the sound cues. […] To insure there is a significant difference in the No-Go trial scores, chi-square tests were completed comparing the post-noise exposure tests to the baseline tests. However, if tinnitus is not present in the mice, tests were done after waiting one more month, and another if needed.
A chemogenetic-based model was established by using DREADDs to target excitatory neurons of the IC to establish a more reliable and efficient tinnitus model in mice. […]

Data set [2] in a line: SBAD testing of a control group of SBAD trained animals given CNO, to rule out off-target effects of CNO. Type of data set: in vivo, mice. Conditions: control group of three SBAD trained animals; CNO IP 5 mg/kg one hour before SBAD testing. The protocol:
as §1
A chemogenetic-based model was established by using DREADDs to target excitatory neurons of the IC to establish a more reliable and efficient tinnitus model in mice. Stereotaxic microinjections of excitatory DREADDs [AAV8-CaMKIIa-HM3D-mCherry] were performed in these C57BL/6J mice, similar to previous studies (Saloman et al., 2016; Smith et al. 2016; Horii-Hayashi & Nishi 2021). Coordinates for microinjections were based on the atlas of Paxinos and Watson (2006) (AP: −5.00 mm, ML: +/−1.00 mm, DV: −1.50 mm). Mice were anesthetized with 5% isoflurane and placed in a stereotaxic head frame. During surgery mice were maintained at a 1.5-2% isoflurane level. Hair was removed and a vertical incision was made to expose the skull. The skull was leveled between bregma and lambda. […]

Consider `C[N+]1([O-])CCN(C2=Nc3cc(Cl)ccc3Nc3ccccc32)CC1` [CNO, Clozapine-N-oxide], for which, in data set [1] (of eight animals, one hour after IP injection of CNO, chi-squared, p<0.03), the “number of animals tested positive for tinnitus” value is given as “seven”. Moreover, the “animals tested positive for tinnitus (share of animals)” value in data set [1] (one hour after IP injection of CNO, eight mice with 50 or 150 nL AAV8-CaMKIIa-HM3D-mCherry bilaterally in the IC, chi-squared, p<0.03) was found to be 87%. Moreover, in data set [1] (post-hoc t-tests (Bonferoni adjusted), p<.001, mice with AAV8-CaMKIIa-HM3D-mCherry in the IC), the “SBAD No-Go scores post-CNO injections compared to baseline and saline injections” value is “significantly reduced”. In data set [2], the “Go and No-Go scores post-CNO injections (behavioral side effects of CNO)” value is on record as “remained stable”.
